The subject of test [1] is MDA-MB-231 inoculated nude mice. Nature of the test: nude mice xenograft tumor model. Format: in vivo, nude mice of BALB/c-nu species. The settings on record: about 0.75 mg/Kg injected everyday. The procedure:
The in vivo experiment was performed in a nude mice xenograft tumor model. The experimental animals were nude mice of BALB/c-nu species commercially obtained from the National Laboratory Animal Center (NLAC). The nude mice were raise in a germ-free box and the light application time was 7:00-19:00. Filtered air, sterilized water and feed were supplied to and naturally eaten by the nude mice. Female nude mice which matured in 8-10 weeks were used to perform the experiment. The breast tumor cell (2×10^6/100 μl) was injected into one side of each back part of 60 nude mice in a hypodermic injection manner. After about 10 days 1-3 mm tumor was grown on each back of the nude mice, the nude mice were randomly divided into 4 groups. Three groups of nude mice were fed with the active ingredient Antrodia camphorata in different doses. The tumor growth was observed and photographed every day. The tumor volume was measured every three days. The volume was calculated according to the equation provided by Osborne et al in 1987. The experimental animals were divided into the control group (not treated), the solvent group (only physiological saline was injected) and a group injected with the compound II (the dose was about 0.75 mg/Kg). The injection was performed everyday, and the animals were fed in normal conditions and photographed for record, so as to compare the tumor growth condition of experimental animals in each group.

Test [2] relates to PI3K and Akt in breast tumor cells. Description: western blotting of PI3K and Akt and phosphorylation. Format: cell-based, human. Conditions: 2 μM, 0-120 min. The protocol:
(§1) The steps of western blotting include: washing cells with PBS twice at 4° C.; adding a lysis buffer and rubbing the cells by a rubbr policeman so as to lyse cells; putting the lysed cell solution into a 1.5 ml microcentrifuge tube and shaking for 1 min; centrifuging at 12000 rpm for 10 min and taking the supernatant; measuring concentration of the protein through a Bio-Rad protein assay kit; and storing the remained extracted protein solution at −70° C.; taking 100 μg protein solution and adding a SDS/protein loading buffer having the same volume, where the SDS/protein loading buffer has a concentration two times larger than the protein solution; boiling the mixture of the protein solution and the SDS/protein loading buffer at 100° C. for 10 min; cooling and loading the protein samples in each hole of gel; adjusting the voltage to 100 V and running the protein samples on the gel until the tracking dye in the sample buffer reaches the bottom of the gel; and subsequently transferring the protein from the gel using electrophoresis. […] Then luminescence image equipment was used, where the PVDF was placed onto a black metal plate by a plastic pincer and the face including protein was upwards, a 1:1 mixed Chemiluminesent Substrate was added into the membrane and the exposure time depends on the fluorescence intensity of antibodies. […]
(In western blotting, separated proteins are transferred to a membrane and probed.)

Test [3] concerns MMP-2, MMP-9, uPA, uPAR, TIMP-1, TIMP-2, PAI-1 in breast tumor cells. Nature of the test: western blotting of metastasis-related proteins. Type of test: cell-based, human. Conditions: 0.5, 1 and 2 μM, 24 h, with dose increasing. The procedure: as §1

Turning to `COC1=C(OC)C(=O)C(C)=C(C)C1=O` [compound II], in test [1], the “tumor a period after injection” value is “completely disappears” and the “tumor volume versus control group” value was “obviously smaller”. This molecule also gave a tumor weight in test [1] (control 0.455±0.328) of 0.039±0.028. In test [2], the “phosphorylation of PI3K and Akt” value was “probably inhibited”; the “protein expression of PI3K and Akt” value is on record as “not affected”. Moreover, in test [3], the “expression amount of TIMP-1, TIMP-2 and PAI-1” value is “increased”; the “expression of MMP-2, MMP-9, uPA and uPAR” value was “inhibited”.

The values above are taken from patent publication US20150087722A1, “TREATMENT FOR BREAST TUMOR CELL METASTASIS” (China Medical University, priority 2012, published 2015).
